Experimental data taken from ChEMBL document CHEMBL5303762, “Data for DCP probe BI-8668” (2023).

What was measured:
[1] = biological target: Beta-1 adrenergic receptor (Homo sapiens) (UniProt P08588); assay: BETA1/HUM Eurofins SafetyScreen44 (BI); conditions: Compound concentration 10.0 uM
[2] = biological target: voltage-gated potassium channel (IKs; KCNQ1/KCNE1 as curated) (Rattus norvegicus, UniProt P15383+Q9Z0N7); assay: K+/VOLT/RA Eurofins SafetyScreen44 (BI); assay type: protein-complex assay; conditions: compound concentration 10 uM, read-out: % Ctrl
[3] = biological target: voltage-gated sodium channel (site 2) (Rattus norvegicus, UniProt F1LQQ7+O08562+O88420+O88457+P04774+P04775+P08104+P15389+P15390+Q62968); assay: NA+/SITE2/R Eurofins SafetyScreen44 (BI); assay type: protein assay; conditions: compound concentration 10 uM, read-out: % Ctrl
[4] = biological target: Cannabinoid receptor 2 (Homo sapiens) (UniProt P34972); assay: CB2/PERIPH/H Eurofins SafetyScreen44 (BI); conditions: Compound concentration 10.0 uM
[5] = biological target: Histamine H2 receptor (Homo sapiens) (UniProt P25021); assay: H2/APT/HS Eurofins SafetyScreen44 (BI); conditions: filed as antagonist, Compound concentration 10.0 uM
[6] = biological target: D(2) dopamine receptor (Homo sapiens) (UniProt P14416); assay: D2SH_AGON Eurofins SafetyScreen44 (BI); conditions: filed as agonist, Compound concentration 10.0 uM
[7] = biological target: 5-hydroxytryptamine receptor 2A (Homo sapiens) (UniProt P28223); assay: 5HT2AH_AGON Eurofins SafetyScreen44 (BI); conditions: filed as agonist, Compound concentration 10.0 uM
[8] = biological target: Angiotensin-converting enzyme (Homo sapiens) (UniProt P12821); assay: ACE(HU_AMTCH400) Eurofins SafetyScreen44 (BI)
[9] = biological target: cGMP-inhibited 3',5'-cyclic phosphodiesterase 3A (Homo sapiens) (UniProt Q14432); assay: PDE3A Eurofins SafetyScreen44 (BI); conditions: Compound concentration 10.0 uM
[10] = biological target: T1, Alpha-1A adrenergic receptor (Homo sapiens) (UniProt P35348); assay: ALPHA1AH_ANTAG Eurofins SafetyScreen44 (BI); conditions: filed as antagonist, Compound concentration 10.0 uM
T1 sequence (whole entry): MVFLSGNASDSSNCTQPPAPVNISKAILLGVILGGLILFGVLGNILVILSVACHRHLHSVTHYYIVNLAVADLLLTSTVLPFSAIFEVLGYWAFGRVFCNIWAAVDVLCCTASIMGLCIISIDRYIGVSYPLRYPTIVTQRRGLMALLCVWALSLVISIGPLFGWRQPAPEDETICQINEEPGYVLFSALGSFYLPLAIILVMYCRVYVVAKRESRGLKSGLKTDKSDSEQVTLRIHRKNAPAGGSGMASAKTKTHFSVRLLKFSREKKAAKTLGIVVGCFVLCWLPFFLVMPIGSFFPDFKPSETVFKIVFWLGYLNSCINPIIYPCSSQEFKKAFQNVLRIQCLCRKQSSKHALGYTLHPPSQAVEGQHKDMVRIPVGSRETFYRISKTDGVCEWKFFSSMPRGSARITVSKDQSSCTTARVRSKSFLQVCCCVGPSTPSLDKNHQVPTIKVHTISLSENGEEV

[11] = biological target: Mu-type opioid receptor (Homo sapiens) (UniProt P35372); assay: MU/H Eurofins SafetyScreen44 (BI); conditions: Compound concentration 10.0 uM
[12] = biological target: Endothelin-1 receptor (Homo sapiens) (UniProt P25101); assay: ETA/H Eurofins SafetyScreen44 (BI); conditions: Compound concentration 10.0 uM
[13] = biological target: Cholecystokinin receptor type A (Homo sapiens) (UniProt P32238); assay: CCKA/H Eurofins SafetyScreen44 (BI); conditions: Compound concentration 10.0 uM
[14] = biological target: Sodium-dependent dopamine transporter (Homo sapiens) (UniProt Q01959); assay: DATRANS/HUM Eurofins SafetyScreen44 (BI); conditions: Compound concentration 10.0 uM
[15] = biological target: T2, Muscarinic acetylcholine receptor M1 (Homo sapiens) (UniProt P11229); assay: M1/H Eurofins SafetyScreen44 (BI); conditions: Compound concentration 10.0 uM
T2 sequence (whole entry): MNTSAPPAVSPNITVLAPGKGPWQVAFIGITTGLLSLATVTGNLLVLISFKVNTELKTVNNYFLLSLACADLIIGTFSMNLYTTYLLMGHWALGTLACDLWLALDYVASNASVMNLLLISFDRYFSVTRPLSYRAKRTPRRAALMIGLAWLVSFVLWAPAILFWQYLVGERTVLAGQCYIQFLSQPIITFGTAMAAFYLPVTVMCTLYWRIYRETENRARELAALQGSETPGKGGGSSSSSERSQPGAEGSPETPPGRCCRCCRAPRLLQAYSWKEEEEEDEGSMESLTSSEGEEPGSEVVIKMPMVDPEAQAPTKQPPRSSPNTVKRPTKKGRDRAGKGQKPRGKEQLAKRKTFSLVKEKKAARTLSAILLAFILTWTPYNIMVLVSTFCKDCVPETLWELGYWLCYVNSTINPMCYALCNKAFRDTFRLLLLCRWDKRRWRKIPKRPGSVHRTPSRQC

[16] = biological target: T3, Alpha-2A adrenergic receptor (Homo sapiens) (UniProt P08913); assay: ALPHA2A/HU Eurofins SafetyScreen44 (BI); conditions: Compound concentration 10.0 uM
T3 sequence (whole entry): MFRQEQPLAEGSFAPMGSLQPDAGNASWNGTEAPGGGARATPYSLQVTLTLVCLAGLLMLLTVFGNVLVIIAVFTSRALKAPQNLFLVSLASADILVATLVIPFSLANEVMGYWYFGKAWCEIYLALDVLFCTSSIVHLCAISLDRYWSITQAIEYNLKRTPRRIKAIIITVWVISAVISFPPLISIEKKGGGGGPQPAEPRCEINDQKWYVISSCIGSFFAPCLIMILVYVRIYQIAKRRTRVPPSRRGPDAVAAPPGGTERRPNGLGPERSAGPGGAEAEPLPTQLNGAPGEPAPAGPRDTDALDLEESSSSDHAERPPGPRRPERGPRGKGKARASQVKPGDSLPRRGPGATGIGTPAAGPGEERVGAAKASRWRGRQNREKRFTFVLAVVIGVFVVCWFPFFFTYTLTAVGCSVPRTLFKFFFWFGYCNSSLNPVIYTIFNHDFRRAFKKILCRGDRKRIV

[17] = biological target: 5-hydroxytryptamine receptor 2B (Homo sapiens) (UniProt P41595); assay: 5HT2B/H AG Eurofins SafetyScreen44 (BI); conditions: filed as agonist, Compound concentration 10.0 uM
[18] = biological target: Adenosine receptor A2a (Homo sapiens) (UniProt P29274); assay: A2A/H Eurofins SafetyScreen44 (BI); conditions: filed as antagonist, Compound concentration 10.0 uM
[19] = biological target: T4, 5-hydroxytryptamine receptor 1A (Homo sapiens) (UniProt P08908); assay: 5HT1A/H Eurofins SafetyScreen44 (BI); conditions: Compound concentration 10.0 uM
T4 sequence (whole entry): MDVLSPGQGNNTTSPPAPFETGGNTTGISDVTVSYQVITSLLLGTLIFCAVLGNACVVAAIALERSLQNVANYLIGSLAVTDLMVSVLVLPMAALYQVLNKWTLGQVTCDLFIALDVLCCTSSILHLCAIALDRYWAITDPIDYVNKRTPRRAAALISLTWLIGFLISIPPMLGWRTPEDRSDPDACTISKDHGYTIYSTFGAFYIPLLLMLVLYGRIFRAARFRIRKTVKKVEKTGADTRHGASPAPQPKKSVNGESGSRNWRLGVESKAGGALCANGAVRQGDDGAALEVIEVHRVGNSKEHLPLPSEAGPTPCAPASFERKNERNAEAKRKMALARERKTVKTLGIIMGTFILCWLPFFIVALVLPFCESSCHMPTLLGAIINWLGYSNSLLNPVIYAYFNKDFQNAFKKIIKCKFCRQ

Angiotensin-converting enzyme (Homo sapiens), sequence (P12821 whole entry): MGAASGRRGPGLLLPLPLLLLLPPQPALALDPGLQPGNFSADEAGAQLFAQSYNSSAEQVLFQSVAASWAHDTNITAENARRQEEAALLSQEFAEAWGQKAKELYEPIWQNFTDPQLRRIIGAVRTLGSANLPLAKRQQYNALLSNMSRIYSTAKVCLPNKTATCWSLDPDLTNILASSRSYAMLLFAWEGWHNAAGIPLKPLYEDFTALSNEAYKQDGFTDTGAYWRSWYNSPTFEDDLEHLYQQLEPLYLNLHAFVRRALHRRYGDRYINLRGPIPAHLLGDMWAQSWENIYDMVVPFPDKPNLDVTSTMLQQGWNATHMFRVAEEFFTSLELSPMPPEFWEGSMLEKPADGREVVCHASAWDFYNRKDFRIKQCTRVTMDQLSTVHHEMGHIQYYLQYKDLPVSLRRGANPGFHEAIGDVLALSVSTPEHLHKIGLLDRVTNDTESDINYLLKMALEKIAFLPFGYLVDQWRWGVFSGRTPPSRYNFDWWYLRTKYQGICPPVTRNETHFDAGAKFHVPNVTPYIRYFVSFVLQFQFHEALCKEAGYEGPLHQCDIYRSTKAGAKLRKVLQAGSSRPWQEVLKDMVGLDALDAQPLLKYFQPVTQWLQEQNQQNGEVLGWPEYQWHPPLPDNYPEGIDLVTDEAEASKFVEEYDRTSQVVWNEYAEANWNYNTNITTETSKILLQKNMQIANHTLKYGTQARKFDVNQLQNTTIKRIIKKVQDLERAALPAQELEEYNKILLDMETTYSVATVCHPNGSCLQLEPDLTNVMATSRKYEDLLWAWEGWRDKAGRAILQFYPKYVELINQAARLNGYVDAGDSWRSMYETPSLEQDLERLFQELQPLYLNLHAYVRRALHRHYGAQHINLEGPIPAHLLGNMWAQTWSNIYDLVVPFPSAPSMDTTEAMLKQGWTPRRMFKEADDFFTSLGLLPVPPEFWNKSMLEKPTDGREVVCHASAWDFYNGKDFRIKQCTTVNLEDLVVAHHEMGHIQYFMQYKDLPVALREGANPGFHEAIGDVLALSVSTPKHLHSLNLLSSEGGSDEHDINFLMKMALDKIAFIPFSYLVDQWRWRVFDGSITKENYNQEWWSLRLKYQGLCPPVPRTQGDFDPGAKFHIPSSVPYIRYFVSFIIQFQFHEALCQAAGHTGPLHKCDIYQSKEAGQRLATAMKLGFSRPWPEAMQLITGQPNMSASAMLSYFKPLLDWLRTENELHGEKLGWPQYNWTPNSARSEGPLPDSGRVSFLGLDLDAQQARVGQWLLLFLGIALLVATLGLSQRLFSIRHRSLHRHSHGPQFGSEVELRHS
Sodium-dependent dopamine transporter (Homo sapiens), sequence (Q01959 whole entry): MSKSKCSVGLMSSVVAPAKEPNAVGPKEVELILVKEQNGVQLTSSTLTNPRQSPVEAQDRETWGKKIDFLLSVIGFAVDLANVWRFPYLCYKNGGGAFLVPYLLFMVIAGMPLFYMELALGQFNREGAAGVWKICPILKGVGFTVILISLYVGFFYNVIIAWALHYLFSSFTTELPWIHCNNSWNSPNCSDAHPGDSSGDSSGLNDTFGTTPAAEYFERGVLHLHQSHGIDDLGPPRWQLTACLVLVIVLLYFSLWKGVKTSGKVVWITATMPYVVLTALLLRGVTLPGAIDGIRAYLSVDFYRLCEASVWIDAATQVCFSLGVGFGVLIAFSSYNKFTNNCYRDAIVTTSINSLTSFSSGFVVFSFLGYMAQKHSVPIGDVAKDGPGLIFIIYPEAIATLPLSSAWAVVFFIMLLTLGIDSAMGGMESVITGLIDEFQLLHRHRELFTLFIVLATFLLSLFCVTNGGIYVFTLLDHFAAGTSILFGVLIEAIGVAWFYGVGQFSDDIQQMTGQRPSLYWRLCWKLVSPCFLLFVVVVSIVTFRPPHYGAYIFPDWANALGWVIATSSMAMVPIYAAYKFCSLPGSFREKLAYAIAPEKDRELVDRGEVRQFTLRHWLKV
Mu-type opioid receptor (Homo sapiens), sequence (P35372 whole entry): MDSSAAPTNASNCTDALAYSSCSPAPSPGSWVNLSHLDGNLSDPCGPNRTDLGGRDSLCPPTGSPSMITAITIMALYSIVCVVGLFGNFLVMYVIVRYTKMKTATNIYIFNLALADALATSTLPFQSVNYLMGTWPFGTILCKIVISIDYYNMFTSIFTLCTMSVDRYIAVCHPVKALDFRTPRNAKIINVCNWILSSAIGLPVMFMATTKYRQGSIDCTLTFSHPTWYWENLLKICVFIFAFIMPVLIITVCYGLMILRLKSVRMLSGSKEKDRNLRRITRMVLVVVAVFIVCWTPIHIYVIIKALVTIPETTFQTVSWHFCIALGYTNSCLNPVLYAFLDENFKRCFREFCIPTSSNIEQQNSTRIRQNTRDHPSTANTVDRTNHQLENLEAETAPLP
D(2) dopamine receptor (Homo sapiens), sequence (P14416 whole entry): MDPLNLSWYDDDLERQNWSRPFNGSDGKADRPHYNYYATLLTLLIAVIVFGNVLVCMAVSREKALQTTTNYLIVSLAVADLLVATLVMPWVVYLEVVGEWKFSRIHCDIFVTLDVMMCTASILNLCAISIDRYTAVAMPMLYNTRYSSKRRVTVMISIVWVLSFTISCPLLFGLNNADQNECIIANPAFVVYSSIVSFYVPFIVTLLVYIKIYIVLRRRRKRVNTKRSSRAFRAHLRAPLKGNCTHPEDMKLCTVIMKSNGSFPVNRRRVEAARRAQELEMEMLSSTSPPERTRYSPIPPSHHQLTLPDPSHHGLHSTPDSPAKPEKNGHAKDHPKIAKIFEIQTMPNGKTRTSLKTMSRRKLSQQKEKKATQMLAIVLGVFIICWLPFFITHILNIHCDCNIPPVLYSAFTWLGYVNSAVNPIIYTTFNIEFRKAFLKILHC
5-hydroxytryptamine receptor 2A (Homo sapiens), sequence (P28223 whole entry): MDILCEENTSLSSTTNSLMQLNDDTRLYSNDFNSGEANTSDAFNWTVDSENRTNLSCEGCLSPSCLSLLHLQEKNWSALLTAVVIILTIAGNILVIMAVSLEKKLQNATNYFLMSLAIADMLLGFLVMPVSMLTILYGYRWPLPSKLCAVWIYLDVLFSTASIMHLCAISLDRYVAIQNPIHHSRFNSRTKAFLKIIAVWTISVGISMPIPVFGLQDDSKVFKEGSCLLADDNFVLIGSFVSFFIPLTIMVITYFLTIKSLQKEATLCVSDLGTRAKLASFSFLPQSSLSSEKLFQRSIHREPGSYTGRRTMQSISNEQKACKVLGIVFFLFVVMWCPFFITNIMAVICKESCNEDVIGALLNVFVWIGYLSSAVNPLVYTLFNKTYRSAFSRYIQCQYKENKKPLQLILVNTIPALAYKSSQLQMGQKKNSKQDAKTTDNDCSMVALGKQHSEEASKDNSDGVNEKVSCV
5-hydroxytryptamine receptor 2B (Homo sapiens), sequence (P41595 whole entry): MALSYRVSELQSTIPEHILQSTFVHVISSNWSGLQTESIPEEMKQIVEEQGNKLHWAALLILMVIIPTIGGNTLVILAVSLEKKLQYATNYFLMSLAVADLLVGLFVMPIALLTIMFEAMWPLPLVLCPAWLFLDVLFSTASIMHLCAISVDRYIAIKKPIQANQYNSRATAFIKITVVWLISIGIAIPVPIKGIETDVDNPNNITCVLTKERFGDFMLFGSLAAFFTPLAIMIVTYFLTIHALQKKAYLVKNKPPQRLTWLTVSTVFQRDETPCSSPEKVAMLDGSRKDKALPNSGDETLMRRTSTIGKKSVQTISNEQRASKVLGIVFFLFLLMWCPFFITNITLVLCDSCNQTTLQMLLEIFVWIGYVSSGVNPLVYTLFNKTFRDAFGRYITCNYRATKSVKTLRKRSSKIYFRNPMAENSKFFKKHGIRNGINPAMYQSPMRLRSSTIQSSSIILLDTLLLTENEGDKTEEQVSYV
Adenosine receptor A2a (Homo sapiens), sequence (P29274 whole entry): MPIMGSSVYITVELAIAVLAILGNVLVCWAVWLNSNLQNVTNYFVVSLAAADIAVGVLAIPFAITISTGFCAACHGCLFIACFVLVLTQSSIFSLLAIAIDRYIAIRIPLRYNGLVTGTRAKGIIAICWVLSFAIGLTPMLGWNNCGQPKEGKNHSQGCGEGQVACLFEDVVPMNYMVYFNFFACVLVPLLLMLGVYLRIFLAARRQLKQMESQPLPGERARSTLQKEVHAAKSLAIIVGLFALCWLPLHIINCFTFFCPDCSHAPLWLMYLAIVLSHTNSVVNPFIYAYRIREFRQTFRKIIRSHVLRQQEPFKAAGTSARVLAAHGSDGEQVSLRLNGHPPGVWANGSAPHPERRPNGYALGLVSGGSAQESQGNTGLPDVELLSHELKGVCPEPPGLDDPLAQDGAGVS
Beta-1 adrenergic receptor (Homo sapiens), sequence (P08588 whole entry, looked up): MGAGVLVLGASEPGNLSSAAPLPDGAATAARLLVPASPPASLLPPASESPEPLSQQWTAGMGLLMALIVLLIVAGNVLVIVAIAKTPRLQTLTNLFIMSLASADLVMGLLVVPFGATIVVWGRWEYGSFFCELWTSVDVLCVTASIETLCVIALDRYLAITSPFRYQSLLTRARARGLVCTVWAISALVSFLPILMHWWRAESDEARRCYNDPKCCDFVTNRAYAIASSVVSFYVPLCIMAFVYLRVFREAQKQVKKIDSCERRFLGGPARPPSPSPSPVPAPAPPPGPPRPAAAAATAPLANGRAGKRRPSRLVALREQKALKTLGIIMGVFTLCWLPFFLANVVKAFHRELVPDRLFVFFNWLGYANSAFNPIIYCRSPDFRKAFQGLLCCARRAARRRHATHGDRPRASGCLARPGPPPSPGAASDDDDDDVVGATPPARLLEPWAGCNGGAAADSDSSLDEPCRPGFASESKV
Cannabinoid receptor 2 (Homo sapiens), sequence (P34972 whole entry): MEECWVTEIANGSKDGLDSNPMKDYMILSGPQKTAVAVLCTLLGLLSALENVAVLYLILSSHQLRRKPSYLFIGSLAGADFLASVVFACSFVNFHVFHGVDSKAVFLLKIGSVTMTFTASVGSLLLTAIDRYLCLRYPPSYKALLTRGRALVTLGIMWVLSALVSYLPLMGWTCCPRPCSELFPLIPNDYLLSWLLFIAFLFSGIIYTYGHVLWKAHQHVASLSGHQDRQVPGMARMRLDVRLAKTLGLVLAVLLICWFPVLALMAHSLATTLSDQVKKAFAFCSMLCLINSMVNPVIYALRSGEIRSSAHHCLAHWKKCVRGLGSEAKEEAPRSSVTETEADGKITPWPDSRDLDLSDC

| SMILES | residual activity [1] | activity at 10 µM [2] | activity at 10 µM [3] | residual activity [4] | residual activity [5] | residual activity [6] | residual activity [7] | residual activity ([8]; Compound concentration 10.0 uM) | residual activity [9] | residual activity [10] | residual activity [11] | residual activity [12] | residual activity [13] | residual activity [14] | residual activity [15] | residual activity [16] | residual activity [17] | residual activity [18] | residual activity [19] | also measured |
| --- | --- | --- | --- | --- | --- | --- | --- | --- | --- | --- | --- | --- | --- | --- | --- | --- | --- | --- | --- | --- |
| CCn1c(CNC(=O)c2nc(Cl)cnc2N)[n+](CC)c2ccc(C(=O)N(C)CCN(C)C)cc21 | 97% | 99% (not active) | 66% (not active) | 119% | 117% | 101% | 97% | 55.6% | 100% | 45% | 95% | 100% | 84% | 83% | 50% | 112% | 92% | 110% | 107% | residual activity ([8]; Compound concentration 30.0 uM): 31%; residual activity ([8]; Compound concentration 100.0 uM): 24% |
| CCn1c(CNC(=O)c2ncc(C)nc2N)[n+](CC)c2ccc(C(=O)N(C)CN(C)C)cc21 | 105% | 103% (not active) | 87% (not active) | 96% | 120% | 79% | 91% | 39% | 87% | 63% | 95% | 104% | 82% | 90% | 76% | 97% | 61% | 105% | 111% | – |
